Source: patent US20040002052A1, “Systems and methods for rapid evaluation and design of molecules for predicted biological activity” (priority 2001, published 2004)
“Also recorded” adds a separate entry of the source.

Tests used:
[1] = test system: estrogenic activity; assay: uterotrophic assays (estrogenic bioactivity); type: in vivo; details: compared with estradiol
[2] = test system: estrogenic activity; details: Medicinal Chemistry Research 10:440-455, 2001; cited from earlier work

SMILES: CO[C@H]1C[C@]2(C)[C@@H](O)CC[C@H]2[C@H]2[C@H]1c1ccc(O)cc1C[C@H]2C [PDC-7, 11β-Methoxy-7α-Methylestradiol]
- biological potency in uterotrophic assays / estrogenic activity [1]: improved biological potency over estradiol; also recorded: potent estrogenic activity
- estrogenic bioactivity compared with estradiol [2]: greater estrogenic bioactivity than estradiol
